Experiments:
Test in all cases: biochemical
Design in all cases: Ubiquigent DUB profiler selectivity panel, remaining enzyme activity as % of control
Conditions in all cases: read-out: % of control remaining
Cezanne = target: T1, Cezanne (Homo sapiens, UniProt Q6GQQ9)
T1 construct: gene OTUD7B
T1 sequence (Q6GQQ9 1-843): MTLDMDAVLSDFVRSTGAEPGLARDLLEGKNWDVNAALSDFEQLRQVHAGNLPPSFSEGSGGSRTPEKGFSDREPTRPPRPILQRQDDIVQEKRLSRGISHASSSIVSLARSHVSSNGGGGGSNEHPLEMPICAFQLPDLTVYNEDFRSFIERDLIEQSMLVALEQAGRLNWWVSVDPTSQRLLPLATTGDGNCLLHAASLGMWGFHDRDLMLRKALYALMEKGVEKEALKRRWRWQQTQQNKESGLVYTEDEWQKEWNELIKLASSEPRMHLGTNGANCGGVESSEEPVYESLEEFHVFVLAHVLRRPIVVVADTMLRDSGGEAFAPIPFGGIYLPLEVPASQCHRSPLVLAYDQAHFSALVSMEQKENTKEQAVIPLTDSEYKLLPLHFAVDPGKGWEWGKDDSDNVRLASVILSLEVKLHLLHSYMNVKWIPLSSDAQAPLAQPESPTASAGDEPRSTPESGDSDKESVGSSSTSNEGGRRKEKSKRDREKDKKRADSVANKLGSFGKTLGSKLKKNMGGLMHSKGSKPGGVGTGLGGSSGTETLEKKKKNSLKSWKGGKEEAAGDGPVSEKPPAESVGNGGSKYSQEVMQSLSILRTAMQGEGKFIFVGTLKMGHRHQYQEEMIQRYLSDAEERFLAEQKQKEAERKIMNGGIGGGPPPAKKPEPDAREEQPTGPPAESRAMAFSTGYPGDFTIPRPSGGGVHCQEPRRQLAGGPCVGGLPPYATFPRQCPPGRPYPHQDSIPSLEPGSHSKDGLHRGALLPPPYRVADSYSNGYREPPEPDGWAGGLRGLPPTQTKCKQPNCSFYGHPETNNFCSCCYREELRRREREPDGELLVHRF
Description: (§1) Previous work has reported IC50 values for a series of benzosulphonamide inhibitors, of which all those <1 μM were screened for selectivity, in comparison to three other USP family members ([20], [21]). We have selected one of these compounds (CMPD-39, Fig 1A) for a more rigorous test of selectivity provided by the Ubiquigent DUB profiler screening platform comprising >40 DUBs. […] To test engagement of the inhibitor with USP30 applied to intact cells, we assayed competition with Ub-PA (Ub-propargylamide). Ub-PA covalently binds to the USP30 active site leading to a characteristic upshift on a SDS–PAGE gel ([22]). If a drug blocks access to the catalytic site, then the probe modification is blocked and the apparent molecular weight of USP30 shifts down accordingly. […] A robust proxy read-out for target engagement is the enhancement of TOMM20 ubiquitylation after mitochondrial depolarization ([6], [16]). This second assay indicates a maximal effect with 200 nM CMPD-39 applied to RPE1-YFP-PRKN cells (Fig 1D).  Figure 1. CMPD-39 is a selective USP30 inhibitor. (A) Chemical structure of CMPD-39. (B) DUB specificity screen (DUB profiler, Ubiquigent) with 1-100 μM CMPD-39. […] Samples were incubated with CMPD-39 for 2 h at the indicated concentrations, then incubated with HA-Ub-PA probe for 10 min at 37°C and immunoblotted as shown. Red arrow indicates unbound USP30; blue arrow represents probe bound USP30. (D) Inhibition of USP30 enhances the ubiquitylation of TOMM20 in YFP-PRKN over-expressing hTERT-RPE1 cells in a concentration dependent manner in response to mitophagy induction. Cells were treated for 1 h with DMSO or antimycin A and oligomycin A (AO; 1 μM each) in the absence or presence of CMPD-39 at the indicated concentrations, lysed, and analyzed by Western blotting. Black arrow indicates unmodified TOMM20, ubiquitylated species are indicated by red (mono-ubiquitylated) or blue arrow heads. […] Source data are available for this figure.

OTUB2 = target: T2, OTUB2 (Homo sapiens, UniProt Q96DC9)
T2 sequence (Q96DC9 1-234): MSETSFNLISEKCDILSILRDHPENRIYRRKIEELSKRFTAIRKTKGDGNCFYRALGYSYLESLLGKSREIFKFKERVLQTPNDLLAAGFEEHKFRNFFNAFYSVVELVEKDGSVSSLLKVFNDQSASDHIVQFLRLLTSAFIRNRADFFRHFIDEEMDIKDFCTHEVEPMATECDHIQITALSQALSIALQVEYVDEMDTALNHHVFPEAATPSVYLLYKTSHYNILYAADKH
Description: as §1

OTUD5 (p177S) = target: T3, OTUD5 (p177S) (Homo sapiens, UniProt Q96G74)
T3 construct: phosphorylated S177
T3 sequence (Q96G74 1-571): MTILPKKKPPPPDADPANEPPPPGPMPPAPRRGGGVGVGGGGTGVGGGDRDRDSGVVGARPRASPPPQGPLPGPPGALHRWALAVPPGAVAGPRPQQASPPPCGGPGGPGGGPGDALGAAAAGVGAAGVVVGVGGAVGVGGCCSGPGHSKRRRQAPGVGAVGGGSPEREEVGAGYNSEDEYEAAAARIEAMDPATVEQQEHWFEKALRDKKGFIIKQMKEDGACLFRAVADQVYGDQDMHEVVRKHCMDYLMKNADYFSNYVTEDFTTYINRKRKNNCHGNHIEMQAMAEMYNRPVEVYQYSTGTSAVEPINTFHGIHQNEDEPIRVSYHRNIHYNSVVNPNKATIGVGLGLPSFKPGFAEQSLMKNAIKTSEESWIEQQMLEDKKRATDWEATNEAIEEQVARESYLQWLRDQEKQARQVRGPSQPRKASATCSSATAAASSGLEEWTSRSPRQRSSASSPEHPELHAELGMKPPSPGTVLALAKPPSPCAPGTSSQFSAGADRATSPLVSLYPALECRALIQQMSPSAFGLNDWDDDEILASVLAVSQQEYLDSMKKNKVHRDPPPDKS
Description: as §1

USP11 = USP11 (Homo sapiens, UniProt P51784)
Sequence of USP11 (P51784 whole entry): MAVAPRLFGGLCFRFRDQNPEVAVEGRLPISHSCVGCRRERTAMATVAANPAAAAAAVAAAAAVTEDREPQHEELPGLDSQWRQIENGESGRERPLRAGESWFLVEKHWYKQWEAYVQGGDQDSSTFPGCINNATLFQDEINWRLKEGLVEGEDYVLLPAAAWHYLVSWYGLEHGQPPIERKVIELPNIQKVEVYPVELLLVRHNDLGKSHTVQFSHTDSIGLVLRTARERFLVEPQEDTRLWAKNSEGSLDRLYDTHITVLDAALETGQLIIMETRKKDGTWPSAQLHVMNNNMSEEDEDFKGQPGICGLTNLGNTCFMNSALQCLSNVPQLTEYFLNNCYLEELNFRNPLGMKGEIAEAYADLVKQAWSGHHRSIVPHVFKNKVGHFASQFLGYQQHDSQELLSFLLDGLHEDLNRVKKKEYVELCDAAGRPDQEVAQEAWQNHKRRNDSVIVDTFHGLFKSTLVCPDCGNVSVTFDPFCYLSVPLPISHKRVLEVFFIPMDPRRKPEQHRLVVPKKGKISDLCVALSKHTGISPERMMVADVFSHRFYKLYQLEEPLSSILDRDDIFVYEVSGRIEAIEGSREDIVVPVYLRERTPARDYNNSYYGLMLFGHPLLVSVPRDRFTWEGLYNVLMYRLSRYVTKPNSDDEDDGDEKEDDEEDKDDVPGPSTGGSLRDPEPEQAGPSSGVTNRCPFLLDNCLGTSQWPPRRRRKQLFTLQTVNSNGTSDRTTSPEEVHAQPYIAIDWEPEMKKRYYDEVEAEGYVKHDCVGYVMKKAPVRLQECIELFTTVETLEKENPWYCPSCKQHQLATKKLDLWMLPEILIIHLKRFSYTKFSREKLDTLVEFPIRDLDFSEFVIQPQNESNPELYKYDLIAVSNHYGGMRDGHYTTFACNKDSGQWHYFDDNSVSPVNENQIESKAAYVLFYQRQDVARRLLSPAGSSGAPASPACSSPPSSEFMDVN
Description: as §1

USP20 = USP20 (Homo sapiens, UniProt Q9Y2K6)
Sequence of USP20 (Q9Y2K6 whole entry): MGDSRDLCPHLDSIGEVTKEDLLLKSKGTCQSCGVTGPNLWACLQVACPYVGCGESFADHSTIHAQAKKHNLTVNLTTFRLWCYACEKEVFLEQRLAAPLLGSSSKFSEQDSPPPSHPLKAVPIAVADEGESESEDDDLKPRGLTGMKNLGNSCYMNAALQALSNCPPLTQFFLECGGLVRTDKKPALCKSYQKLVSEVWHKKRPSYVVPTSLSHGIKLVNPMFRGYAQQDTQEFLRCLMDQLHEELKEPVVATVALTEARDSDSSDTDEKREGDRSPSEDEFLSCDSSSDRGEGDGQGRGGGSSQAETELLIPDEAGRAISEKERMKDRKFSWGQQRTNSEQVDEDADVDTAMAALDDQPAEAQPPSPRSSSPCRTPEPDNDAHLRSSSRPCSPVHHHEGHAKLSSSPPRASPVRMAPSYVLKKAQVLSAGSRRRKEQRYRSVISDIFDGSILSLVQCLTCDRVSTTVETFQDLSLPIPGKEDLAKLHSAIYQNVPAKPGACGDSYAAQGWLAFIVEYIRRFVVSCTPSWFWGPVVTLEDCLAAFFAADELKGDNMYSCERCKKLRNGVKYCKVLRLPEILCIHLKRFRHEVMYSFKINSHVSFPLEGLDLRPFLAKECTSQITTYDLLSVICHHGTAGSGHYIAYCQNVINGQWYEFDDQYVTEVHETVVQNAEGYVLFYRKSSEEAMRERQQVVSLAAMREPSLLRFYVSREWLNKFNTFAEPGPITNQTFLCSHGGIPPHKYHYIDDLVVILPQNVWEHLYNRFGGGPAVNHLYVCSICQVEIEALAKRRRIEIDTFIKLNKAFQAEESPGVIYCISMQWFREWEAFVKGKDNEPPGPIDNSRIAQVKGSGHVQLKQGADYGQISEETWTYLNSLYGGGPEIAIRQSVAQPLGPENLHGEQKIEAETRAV
Description: as §1

CC(C)(C)NS(=O)(=O)c1ccc(NC(=O)[C@H](Cc2ccccc2)NC(=O)c2ccc(F)cc2)cc1 [compound 39, CMPD-39]
remaining activity at 1 µM (Cezanne): 98.7% | remaining activity at 10 µM (Cezanne): 98.8% | remaining activity at 100 µM (Cezanne): 94.4% | remaining activity at 1 µM (OTUB2): 103% | remaining activity at 10 µM (OTUB2): 97.5% | remaining activity at 100 µM (OTUB2): 97.3% | remaining activity at 1 µM (OTUD5 (p177S)): 108% | remaining activity at 10 µM (OTUD5 (p177S)): 106% | remaining activity at 100 µM (OTUD5 (p177S)): 89.9% | remaining activity at 1 µM (USP11): 103% | remaining activity at 10 µM (USP11): 98.4% | remaining activity at 100 µM (USP11): 97.2% | remaining activity at 1 µM (USP20): 113% | remaining activity at 10 µM (USP20): 110% | remaining activity at 100 µM (USP20): 155%
